Where a name gives a salt, the structure may show the parent alone.
Legend:
[1] = target: purified human Factor XIa (Homo sapiens (Human), UniProt P03951); assay: biochemical; type: biochemical; conditions: read-out: Factor XIa Ki
[2] = target: purified human plasma kallikrein (Homo sapiens (Human), UniProt P03952); assay: biochemical; type: biochemical; conditions: read-out: Plasma Kallikrein Ki
Chain of purified human plasma kallikrein (P03952 whole entry, looked up): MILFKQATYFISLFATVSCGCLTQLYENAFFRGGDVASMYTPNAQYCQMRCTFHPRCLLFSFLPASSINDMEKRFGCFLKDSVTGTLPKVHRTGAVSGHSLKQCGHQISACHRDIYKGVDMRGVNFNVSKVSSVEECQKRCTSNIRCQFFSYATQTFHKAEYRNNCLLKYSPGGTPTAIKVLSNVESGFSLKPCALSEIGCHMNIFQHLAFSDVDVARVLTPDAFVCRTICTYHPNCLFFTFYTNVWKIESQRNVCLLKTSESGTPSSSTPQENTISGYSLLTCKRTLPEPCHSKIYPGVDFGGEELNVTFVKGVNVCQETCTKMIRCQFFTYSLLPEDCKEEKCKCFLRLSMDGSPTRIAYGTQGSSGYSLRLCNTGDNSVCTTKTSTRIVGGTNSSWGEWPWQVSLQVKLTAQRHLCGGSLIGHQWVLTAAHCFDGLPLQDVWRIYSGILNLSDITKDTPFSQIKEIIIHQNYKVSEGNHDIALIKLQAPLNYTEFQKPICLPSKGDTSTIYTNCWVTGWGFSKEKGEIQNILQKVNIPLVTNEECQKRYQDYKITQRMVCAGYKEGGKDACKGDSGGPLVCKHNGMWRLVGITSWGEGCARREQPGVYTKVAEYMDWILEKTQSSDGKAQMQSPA
Chain of purified human plasma kallikrein (P03952 whole entry partner, looked up): as the sequence (P03952 whole entry, looked up) above

Chain of purified human Factor XIa (P03951 whole entry, looked up): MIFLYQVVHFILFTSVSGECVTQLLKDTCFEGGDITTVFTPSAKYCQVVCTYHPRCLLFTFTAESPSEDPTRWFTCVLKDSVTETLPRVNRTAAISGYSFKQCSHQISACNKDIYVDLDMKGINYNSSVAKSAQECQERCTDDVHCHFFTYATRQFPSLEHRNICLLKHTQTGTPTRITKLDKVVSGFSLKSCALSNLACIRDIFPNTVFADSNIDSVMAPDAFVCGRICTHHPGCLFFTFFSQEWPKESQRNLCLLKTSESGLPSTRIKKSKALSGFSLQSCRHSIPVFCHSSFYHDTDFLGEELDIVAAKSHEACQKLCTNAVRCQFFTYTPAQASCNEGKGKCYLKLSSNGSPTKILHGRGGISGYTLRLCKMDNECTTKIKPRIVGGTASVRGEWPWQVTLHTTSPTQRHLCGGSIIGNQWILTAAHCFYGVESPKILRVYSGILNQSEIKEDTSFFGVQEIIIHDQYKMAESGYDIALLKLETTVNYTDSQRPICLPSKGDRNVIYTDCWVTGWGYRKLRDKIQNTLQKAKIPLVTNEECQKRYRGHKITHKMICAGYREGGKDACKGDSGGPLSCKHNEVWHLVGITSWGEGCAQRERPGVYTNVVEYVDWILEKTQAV
Chain of purified human Factor XIa (P03951 whole entry partner, looked up): as the sequence (P03951 whole entry, looked up) above

Structure (SMILES) | Ki [1] [nM] | Ki [2] [nM]
C[C@@H]1CCC[C@H](N2CCC(c3c(F)ccc(Cl)c3F)=CC2=O)c2cc(ccn2)-c2cc3ccc(=O)[nH]c3cc2NC1=O [Example 81, (14R,18S)-18-[4-(3-Chloro-2,6-difluorophenyl)-6-oxo-1,2,3,6-tetrahydropyridin-1-yl]-14-methyl-8,12,20-triazatetracyclo[17.3.1.0^2,11.0^4,9]tricosa-1(23),2,4(9),5,10,19,21-heptaene-7,13-dione, TFA salt] | 0.31 | 1
Cc1[nH]c2cc3c(cc2c1C(=O)O)-c1ccnc(c1)[C@@H](N1CCC(c2c(F)ccc(Cl)c2F)=CC1=O)CCC[C@@H](C)C(=O)N3 [Example 83, (13R,17S)-17-[4-(3-Chloro-2,6-difluorophenyl)-6-oxo-1,2,3,6-tetrahydropyridin-1-yl]-6,13-dimethyl-12-oxo-7,11,19-triazatetracyclo[16.3.1.0^2,10.0^4,8]docosa-1(22),2,4(8),5,9,18,20-heptaene-5-carboxylic acid, TFA salt] | 0.06 | 7
C[C@@H]1CCC[C@H](N2CCC(c3c(F)ccc(Cl)c3F)=CC2=O)c2cc(ccn2)-c2cc3c(cc2NC1=O)NC(=O)C3 [Example 84, (13R,17S)-17-[4-(3-Chloro-2,6-difluorophenyl)-6-oxo-1,2,3,6-tetrahydropyridin-1-yl]-13-methyl-7,11,19-triazatetracyclo[16.3.1.0^2,10.0^4,8]docosa-1(22),2,4(8),9,18,20-hexaene-6,12-dione, TFA salt] | 2.68 | 16
Cc1cc2cc3c(cc2[nH]1)NC(=O)[C@H](C)CCC[C@H](N1CCC(c2c(F)ccc(Cl)c2F)=CC1=O)c1cc-3ccn1 [Example 85, (13R,17S)-17-[4-(3-Chloro-2,6-difluorophenyl)-6-oxo-1,2,3,6-tetrahydropyridin-1-yl]-6,13-dimethyl-7,11,19-triazatetracyclo[16.3.1.0^2,10.0^4,8]docosa-1(22),2,4(8),5,9,18,20-heptaen-12-one, TFA salt] | 9.17 | 47
C[C@@H]1CCC[C@H](N2CCC(c3c(F)ccc(Cl)c3F)=CC2=O)c2cc(ccn2)-c2cc3c(cc2NC1=O)NC(=O)CC3 [Example 86, (14R,18S)-18-[4-(3-Chloro-2,6-difluorophenyl)-6-oxo-1,2,3,6-tetrahydropyridin-1-yl]-14-methyl-8,12,20-triazatetracyclo[17.3.1.0^2,11.0^4,9]tricosa-1(23),2(11),3,9,19,21-hexaene-7,13-dione, TFA salt] | 0.72 | 1
C[C@@H]1CCC[C@H](N2CCC(c3c(F)ccc(Cl)c3F)=CC2=O)c2cc(ccn2)-c2ccc(Nc3ccccn3)cc2NC1=O [Example 88, (10R,14S)-14-[4-(3-Chloro-2,6-difluorophenyl)-6-oxo-1,2,3,6-tetrahydropyridin-1-yl]-10-methyl-5-[(pyridin-2-yl)amino]-8,16-diazatricyclo[13.3.1.0^2,7]nonadeca-1(19),2(7),3,5,15,17-hexaen-9-one, 2TFA salt] | 1.04 | 5
C[C@@H]1CCC[C@H](N2CCC(c3c(F)ccc(Cl)c3F)=CC2=O)c2cc(ccn2)-c2ccc(Nc3ccncc3)cc2NC1=O [Example 89, (10R,14S)-14-[4-(3-Chloro-2,6-difluorophenyl)-6-oxo-1,2,3,6-tetrahydropyridin-1-yl]-10-methyl-5-[(pyridin-4-yl)amino]-8,16-diazatricyclo[13.3.1.0^2,7]nonadeca-1(19),2(7),3,5,15,17-hexaen-9-one, 2 TFA salt] | 2.43 | 5
C[C@@H]1CCC[C@H](N2CCC(c3c(F)ccc(Cl)c3F)=CC2=O)c2cc(ccn2)-c2ccc(Nc3ccncn3)cc2NC1=O [Example 90, (10R,14S)-14-[4-(3-Chloro-2,6-difluorophenyl)-6-oxo-1,2,3,6-tetrahydropyridin-1-yl]-10-methyl-5-[(pyrimidin-4-yl)amino]-8,16-diazatricyclo[13.3.1.0^2,7]nonadeca-1(19),2(7),3,5,15,17-hexaen-9-one, 2 TFA salt] | 1.81 | 4
C[C@@H]1CCC[C@H](N2CCC(c3c(F)ccc(Cl)c3F)=CC2=O)c2cc(ccn2)-c2ccc(Nc3cnccn3)cc2NC1=O [Example 93, (10R,14S)-14-[4-(3-Chloro-2,6-difluorophenyl)-6-oxo-1,2,3,6-tetrahydropyridin-1-yl]-10-methyl-5-[(pyrazin-2-yl)amino]-8,16-diazatricyclo[13.3.1.0^2,7]nonadeca-1(19),2(7),3,5,15,17-hexaen-9-one, 2 TFA salt] | 1.4 | 3
CC(C)[C@@H]1CCC[C@H](N2CCC(c3c(F)ccc(Cl)c3F)=CC2=O)c2cc(ccn2)-c2ccccc2NC1=O [Example 95, (10S,14S)-14-[4-(3-chloro-2,6-difluorophenyl)-6-oxo-1,2,3,6-tetrahydropyridin-1-yl]-10-(propan-2-yl)-8,16-diazatricyclo[13.3.1.0^2,7]nonadeca-1(18),2,4,6,15(19),16-hexaen-9-one, TFA salt] | 46.5 | 107
CC(C)[C@H]1CCC[C@H](N2CCC(c3c(F)ccc(Cl)c3F)=CC2=O)c2cc(ccn2)-c2ccccc2NC1=O [Example 96, (10R,14S)-14-[4-(3-chloro-2,6-difluorophenyl)-6-oxo-1,2,3,6-tetrahydropyridin-1-yl]-10-(propan-2-yl)-8,16-diazatricyclo[13.3.1.0^2,7]nonadeca-1(18),2,4,6,15(19),16-hexaen-9-one, TFA salt] | > 422 | 1970
COC(=O)Nc1ccc2c(c1)NC(=O)[C@H](C)CCC[C@H](N1CCC(C3CCCCC3)=CC1=O)c1cc-2ccn1 [Example 98, Methyl N-[(10R,14S)-14-(4-cyclohexyl-6-oxo-1,2,3,6-tetrahydropyridin-1-yl)-10-methyl-9-oxo-8,16-diazatricyclo[13.3.1.0^2,7]nonadeca-1(19),2,4,6,15,17-hexaen-5-yl]carbamate, TFA salt] | 30.1 | 36
COC(=O)Nc1ccc2c(c1)NC(=O)[C@H](C)CCC[C@H](N1CCC(c3cncc(Cl)c3)=CC1=O)c1cc-2ccn1 [Example 99, Methyl N-[(10R,14S)-14-[4-(5-chloropyridin-3-yl)-6-oxo-1,2,3,6-tetrahydropyridin-1-yl]-10-methyl-9-oxo-8,16-diazatricyclo[13.3.1.0^2,7]nonadeca-1(19),2,4,6,15,17-hexaen-5-yl]carbamate, his TFA salt] | 126 | 2400
CC1CCC[C@H](N2CCC(c3c(F)ccc(Cl)c3F)=CC2=O)c2cc(ccn2)-c2ccc(C(=O)O)cc2NC1=O (stereo partly drawn) [Example 105, (14S)-14-[4-(3-Chloro-2,6-difluorophenyl)-6-oxo-1,2,3,6-tetrahydropyridin-1-yl]-10-methyl-9-oxo-8,16-diazatricyclo[13.3.1.0^2,7]nonadeca-1(18),2,4,6,15(19),16-hexaene-5-carboxylic acid, TFA salt] | > 342 | 3920
CC1CCC[C@H](N2CCC(c3c(C(F)(F)F)ccc(Cl)c3F)=CC2=O)c2cc(ccn2)-c2ccc(C(=O)O)cc2NC1=O (stereo partly drawn) [Example 106, (14S)-14-{4-[3-Chloro-2-fluoro-6-(trifluoromethyl)phenyl]-6-oxo-1,2,3,6-tetrahydropyridin-1-yl}-10-methyl-9-oxo-8,16-diazatricyclo[13.3.1.0^2,7]nonadeca-1(18),2,4,6,15(19),16-hexaene-5-carboxylic acid, TFA salt] | > 342 | 890
CC1CCC[C@H](N2CCC(c3c(F)ccc(Cl)c3F)=CC2=O)c2cc(ccn2)-c2ccc(C(N)=O)cc2NC1=O (stereo partly drawn) [Example 107, (14S)-14-[4-(3-Chloro-2,6-difluorophenyl)-6-oxo-1,2,3,6-tetrahydropyridin-1-yl]-10-methyl-9-oxo-8,16-diazatricyclo[13.3.1.0^2,7]nonadeca-1(18),2,4,6,15(19),16-hexaene-5-carboxamide, TFA salt] | 17.4 | 88
CC1CCC[C@H](N2CCC(c3c(C(F)(F)F)ccc(Cl)c3F)=CC2=O)c2cc(ccn2)-c2ccc(C(N)=O)cc2NC1=O (stereo partly drawn) [Example 108, (14S)-14-{4-[3-Chloro-2-fluoro-6-(trifluoromethyl)phenyl]-6-oxo-1,2,3,6-tetrahydropyridin-1-yl}-10-methyl-9-oxo-8,16-diazatricyclo[13.3.1.0^2,7]nonadeca-1(18),2,4,6,15(19),16-hexaene-5-carboxamide, TFA salt] | 8.13 | 29
COC(=O)Nc1ccc2c(c1)NC(=O)[C@H](C)CCC[C@H](N1CCC(c3cc(Cl)ccc3C)=CC1=O)c1cc-2ccn1 [Example 110, Methyl N-[(10R,14S)-14-[4-(5-chloro-2-methylphenyl)-6-oxo-1,2,3,6-tetrahydropyridin-1-yl]-10-methyl-9-oxo-8,16-diazatricyclo[13.3.1.0^2,7]nonadeca-1(18),2,4,6,15(19),16-hexaen-5-yl]carbamate] | 0.62 | 3.91
COC(=O)Nc1ccc2c(c1)NC(=O)[C@H](C)CCC[C@H](N1CCC(c3c(F)ccc(C)c3F)=CC1=O)c1cc-2ccn1 [Example 111, Methyl N-[(10R,14S)-14-[4-(2,6-difluoro-3-methylphenyl)-6-oxo-1,2,3,6-tetrahydropyridin-1-yl]-10-methyl-9-oxo-8,16-diazatricyclo[13.3.1.0^2,7]nonadeca-1(18),2,4,6,15(19),16-hexaen-5-yl]carbamate] | 1.42 | 3.25
COC(=O)Nc1ccc2c(c1)NC(=O)[C@H](C)CCC[C@H](N1CCC(c3cc(C)ccc3F)=CC1=O)c1cc-2ccn1 [Example 113, Methyl N-[(10R,14S)-14-[4-(2-fluoro-5-methylphenyl)-6-oxo-1,2,3,6-tetrahydropyridin-1-yl]-10-methyl-9-oxo-8,16-diazatricyclo[13.3.1.0^2,7]nonadeca-1(18),2,4,6,15(19),16-hexaen-5-yl]carbamate] | 7.24 | 15.6

From patent US9409908B2 (priority 2012, dated 2016)
